Laboratory results taken from US9895346B2, “Applications of substituent benzyloxy group containing ether compounds for preparing antitumor drugs” (Sinochem Corporation, priority 2013, dated 2018).

Key:
[1] = system: lung cancer cell line A549; assay: In vitro cell inhibition assay (crystal violet), lung cancer A549; type: cell-based, human
From the text: (§1) In vitro Cell inhibition assay is as follows:
(§2) The human cancer cell lines used for this assay were bladder cancer J82, T24, prostate cancer LNCap, PC-3, lung cancer A549, H157, H460, H520, colon cancer HCT8, HCT116, RkO, and leukemia HL-60, etc.
(§3) In vitro cell culture technology was selected for the determination of inhibition rate bladder cancer cell lines J82 and T24, prostate cancer cell lines LNCap and PC-3, lung cancer cell lines A549, H157, H460 and H520. 1000 to 3000 cells were inoculated to 24-well plate, followed by addition of 1 mL culture medium well known to researchers in this field to each well, the cells were cultured in 5% incubator for 24 hours at 37° C., then the different concentration compounds and controls were added to each well. It should be noted that the added volume is not more than 0.5% of total volume. After completion of addition, the cells continued being cultured in incubator for one week, the culture medium was removed and washed by cold PBS of 1 mL once, and then fixed for 10 minutes at room temperature with 1% formalin, followed by wash with PBS of 1 mL. After fixation, stain was carried out with 0.1% crystal violet for 30 minutes. 0.1% crystal violet was recycled. The stained cells were washed gently with deionized water, dried at room temperature and kepted. The inhibition rate was calculated according to the foiling equation. The controls are Selumetinib (AZD6244), Gefitinib, Cisplatin. Inhibition rate=number of left cells each treatment/number of left cells of untreated control×100%

[2] = system: human leukemia HL-60 cells; assay: Proliferation inhibition of human leukemia HL-60 cells, MTT method; type: cell-based; conditions: 48 h incubation, OPTI-MEM medium
Protocol: The inhibition rate of human leukemia HL-60 cells was evaluated by regular MTT method. The human leukemia HL-60 cells were picked up from cell incubator, after washed for twice using PBS, cells were digested by 0.25% trypsin, and then add medium to terminate the digestion. After cells were collected using centrifuge and re-suspended, counting cells under inverted microscope and adding medium to make a density which was 5×10^4 cells/mL. After 100 μL aliquots were added to each well of 96-well microtiter plates, cells were cultured in 5% incubator for overnight at 37° C., then the different concentration compounds were added to each well. After incubation for 48 h, MTT solution was added to each well and plates were then incubated for 4 h. The MTT tetrazolium was reduced to formazan by living cells. Then the formazan crystals were dissolved though adding DMSO to each well. The absorbance was read at 570 nm with a microplate reader.

[3] = system: lung cancer cell line H460; assay: In vitro cell inhibition assay (crystal violet), lung cancer H460; type: cell-based, human
From the text: as §1, §2, §3

[4] = system: lung cancer cell line H520; assay: In vitro cell inhibition assay (crystal violet), lung cancer H520; type: cell-based, human
From the text: as §1, §2, §3

SMILES | Inhibition rate on human cancer cells ([1]; A549, 5.0 μM) [%] | Proliferation inhibitory effect on human leukemia HL-60 cell (%) ([2]; concentration 1 μM) | Proliferation inhibitory effect on human leukemia HL-60 cell (%) ([2]; concentration 10 μM) | Proliferation inhibitory effect on human leukemia HL-60 cell (%) ([2]; concentration 100 μM) | Inhibition rate on human cancer cells ([1]; A549, 2.5 μM) [%] | Inhibition rate on human cancer cells ([3]; H460, 2.5 μM) [%] | Inhibition rate on human cancer cells ([3]; H460, 5.0 μM) [%] | Inhibition rate on human cancer cells ([4]; H520, 2.5 μM) [%] | Inhibition rate on human cancer cells ([4]; H520, 5.0 μM) [%] | also measured
COC=C(C(=O)OC)c1ccccc1COc1ccc2c(-c3ccccc3Cl)cc(=O)oc2c1 [28-132] | 90 | – | – | – | – | – | – | – | – | –
COC=C(C(=O)OC)c1ccccc1COc1ccc2c(C)c(C)c(=O)oc2c1C [Compound 28-6] | – | 48.2 | 53.0 | 52.0 | – | – | – | – | – | –
CCCc1c(CCC)c2ccc(OCc3ccccc3C(=COC)C(=O)OC)cc2oc1=O [Compound 28-79] | – | 28.8 | 53.1 | 71.2 | – | – | – | – | – | –
COC=C(C(=O)OC)c1ccccc1COc1ccc2cc(C#N)c(=O)oc2c1 [Compound 28-24] | – | 10.8 | 44.5 | 86.7 | – | – | – | – | – | –
COC=C(C(=O)OC)c1ccccc1COc1ccc2c3c(c(=O)oc2c1)CCC3 [Compound 28-125] | – | 47.0 | 73.8 | 85.0 | – | – | – | – | – | –
CCCc1cc(=O)oc2cc(OCc3ccccc3C(=COC)C(=O)OC)ccc12 [28-34] | 100 | – | – | – | 95 | 95 | 95 | 100 | 100 | Inhibition rate on human cancer cells ([1]; A549, 1.0 μM): 90%; Inhibition rate on human cancer cells ([3]; H460, 1.0 μM): 93%; Inhibition rate on human cancer cells ([4]; H520, 0.5 μM): 70%; Inhibition rate on human cancer cells ([4]; H520, 1.0 μM): 99%
COC=C(C(=O)OC)c1ccccc1COc1ccc2c(-c3ccc(C)cc3)cc(=O)oc2c1 [28-136] | 100 | – | – | – | 100 | – | – | – | – | –
COC=C(C(=O)OC)c1ccccc1COc1ccc2c(-c3ccc(C(F)(F)F)cc3)cc(=O)oc2c1 [28-41] | – | – | – | – | – | 75 | 85 | – | 70 | –
CCCCCCc1c(C)c2ccc(OCc3ccccc3C(=COC)C(=O)OC)cc2oc1=O [28-75] | 90 | – | – | – | – | 90 | 95 | 80 | 100 | Inhibition rate on human cancer cells ([3]; H460, 1.0 μM): 70%
COC=C(C(=O)OC)c1ccccc1COc1ccc2c(-c3ccc(OC)cc3)cc(=O)oc2c1 [28-137] | 100 | – | – | – | 100 | – | – | – | – | –
COC=C(C(=O)OC)c1ccccc1COc1ccc2c(C)cc(=O)oc2c1 [Compound 28-2] | – | 6.0 | 49.2 | 71.3 | – | – | 95 | – | – | –
COC=C(C(=O)OC)c1ccccc1COc1ccc2c(C)cc(=O)oc2c1C [Compound 28-3] | – | 4.1 | 33.4 | 58.8 | – | – | – | – | – | –
COC=C(C(=O)OC)c1ccccc1COc1ccc2c(-c3ccc(F)cc3)cc(=O)oc2c1 [Compound 28-38] | – | 77.5 | 72.9 | 63.7 | – | – | – | – | – | –
COC=C(C(=O)OC)c1ccccc1COc1ccc2c(-c3ccc(C#N)cc3)cc(=O)oc2c1 [28-135] | 80 | – | – | – | – | – | – | – | – | –
COC=C(C(=O)OC)c1ccccc1COc1ccc2c(C)c(Cc3ccccc3)c(=O)oc2c1 [Compound 28-68] | – | 54.6 | 62.0 | 84.4 | – | – | – | – | – | –
COC=C(C(=O)OC)c1ccccc1COc1ccc2c(-c3ccc(Br)cc3)cc(=O)oc2c1 [28-134] | 100 | – | – | – | 100 | – | – | – | – | –
COC=C(C(=O)OC)c1ccccc1COc1ccc2c(-c3ccccc3)cc(=O)oc2c1 [28-52] | 100 | – | – | – | 100 | 100 | 100 | 100 | 100 | Inhibition rate on human cancer cells ([1]; A549, 0.5 μM): 90%; Inhibition rate on human cancer cells ([1]; A549, 1.0 μM): 95%; Inhibition rate on human cancer cells ([3]; H460, 0.25 μM): 60%; Inhibition rate on human cancer cells ([3]; H460, 0.5 μM): 90%; Inhibition rate on human cancer cells ([3]; H460, 1.0 μM): 100%; Inhibition rate on human cancer cells ([4]; H520, 0.25 μM): 70%; Inhibition rate on human cancer cells ([4]; H520, 0.5 μM): 100%; Inhibition rate on human cancer cells ([4]; H520, 1.0 μM): 100%
CCc1cc(=O)oc2cc(OCc3ccccc3C(=COC)C(=O)OC)ccc12 [28-33] | 99 | – | – | – | 95 | 95 | 95 | 90 | 100 | Inhibition rate on human cancer cells ([1]; A549, 1.0 μM): 80%; Inhibition rate on human cancer cells ([3]; H460, 1.0 μM): 90%
COC=C(C(=O)OC)c1ccccc1COc1ccc2c(-c3ccc(Cl)cc3)cc(=O)oc2c1 [28-29] | 95 | – | – | – | – | 90 | 95 | 70 | 100 | Inhibition rate on human cancer cells ([3]; H460, 1.0 μM): 70%; Inhibition rate on human cancer cells ([4]; H520, 0.25 μM): 30%; Inhibition rate on human cancer cells ([4]; H520, 0.5 μM): 40%; Inhibition rate on human cancer cells ([4]; H520, 1.0 μM): 70%
COC=C(C(=O)OC)c1ccccc1COc1ccc2c(-c3cccc(Cl)c3)cc(=O)oc2c1 [28-133] | 100 | – | – | – | 100 | – | – | – | – | –
COC=C(C(=O)OC)c1ccccc1COc1ccc2c(-c3ccc(Cl)nc3)cc(=O)oc2c1 [Compound 28-124] | – | 0.5 | 29.3 | 27.8 | – | – | 75 | – | 70 | –
CCc1c(C)c2ccc(OCc3ccccc3C(=COC)C(=O)OC)cc2oc1=O [Compound 28-18] | 100 | – | – | – | 100 | 95 | 95 | 100 | 100 | Inhibition rate on human cancer cells ([1]; A549, 0.5 μM): 90%; Inhibition rate on human cancer cells ([1]; A549, 1.0 μM): 100%; Inhibition rate on human cancer cells ([3]; H460, 0.25 μM): 80%; Inhibition rate on human cancer cells ([3]; H460, 0.5 μM): 90%; Inhibition rate on human cancer cells ([3]; H460, 1.0 μM): 95%; Inhibition rate on human cancer cells ([4]; H520, 0.25 μM): 50%; Inhibition rate on human cancer cells ([4]; H520, 0.5 μM): 95%; Inhibition rate on human cancer cells ([4]; H520, 1.0 μM): 100%
COC=C(C(=O)OC)c1ccccc1COc1ccc2c3c(c(=O)oc2c1C)CCC3 [28-126] | 90 | – | – | – | 85 | 90 | 95 | 90 | 95 | Inhibition rate on human cancer cells ([4]; H520, 1.0 μM): 70%
COC=C(C(=O)OC)c1ccccc1COc1ccc2c(C)c(C(C)C)c(=O)oc2c1 [Compound 28-71] | – | 40.9 | 48.2 | 50.3 | – | – | – | – | – | –
COC=C(C(=O)OC)c1ccccc1COc1ccc2c(C)c(Cl)c(=O)oc2c1 [28-12] | 100 | – | – | – | 95 | 90 | 95 | 100 | 100 | Inhibition rate on human cancer cells ([1]; A549, 1.0 μM): 80%; Inhibition rate on human cancer cells ([3]; H460, 1.0 μM): 75%; Inhibition rate on human cancer cells ([4]; H520, 1.0 μM): 50%
